# Reference: patent US20060204502A1 (priority 2004, published 2006)
# Test system: HIF-1α
# Assay: HIF-1α protein immunoblot in hypoxic cells
# Assay type: cell-based, human
# Conditions: A375
# Method: Cell culture and hypoxia treatment: Cells were maintained in DMEM (A375), EMEM (NCTC 2544) or RPMI 1640 (U87MG, U2OS) medium containing 10% fetal calf serum, penicillin (100 U/ml), streptomycin (100 ug/ml), and L-glutamine (2 mM) at 37° C. in 5% CO2/95% air. Cells were passaged two or three times weekly at a ratio between 1:5 and 1:10. Hypoxic exposure was in BBL™ GasPak pouch™ System (Becton Dickinson) that reduce oxygen concentration of less than 2% within 2 hours of incubation at 35° C.
# Cells were harvested and washed with ice-cold PBS containing 1 mM sodium orthovanadate, AEBSF 104 mM, aprotinin 0.08 mM, leupeptin 2 mM, bestatin 4 mM, pepstatin A 1.5 mM, E-64 1.4 mM. Cells were then lysed in Triton lysis buffer. The protein concentration was determined using BCA protein assay kit (Pierce). […] The gel was then electroblotted onto a nitrocellulose membrane. Membranes were blocked with 5% nonfat dry milk in PBS containing 0.1% Tween-20 and incubated with antibodies against HIF-1α (1:250 dilution) and HIF-1β (1:1000 dilution) in 5% nonfat dry milk in PBS/0.1% Tween-20 overnight at 4° C. Aliquots of total protein sample (50 ug) were analyzed using antibodies specific for phosphorylated (Thr183/Tyr185) or total p44/p42 MAPK (1:5000 dilution), phosphorylated (Thr180/Tyr182) or total p38 MAPK (1:1000 dilution) and for A3 receptor (1 µg/ml dilution). Filters were washed and incubated for 1 hour at room temperature with peroxidase-conjugated secondary antibodies against mouse and rabbit IgG (1:2000 dilution). […] The membranes were then stripped and reprobed with tubulin (1:250) to ensure equal protein loading.
# U0126 was used at 10 and 30 uM as inhibitor of MEK-1 and MEK-2 to prevent p44 and p42 MAPK activation. SB202190 was used at 1 and 10 uM as inhibitor of p38 MAPK.
# Densitometry analysis: The intensity of each band in immunoblot assay was quantified using molecular analyst/PC densitometry software (Bio-Rad). […] The data were presented as the mean±S.E., and analyzed by the Student's test.
smiles,measurement,setting,value
"CCCn1cc2c(nc(NC(=O)Nc3ccc(OC)cc3)n3nc(-c4ccco4)nc23)n1 [MRE3008F20, 5-[[(4-Methoxyphenyl)amino]carbonyl]amino-8-propyl-2-(2-furyl)-pyrazolo[4,3-e]1,2,4-triazolo[1,5-c]pyrimidine]",effect on adenosine-induced HIF-1α protein expression,"hypoxia 4 hours, adenosine 100 μM, antagonist 100 nM",abrogated
same,effect on Cl-IB-MECA-induced HIF-1α modulation,"hypoxia, antagonist 10 and 100 nM, Cl-IB-MECA 10 and 100 nM",able to abrogate the effect of Cl-IB-MECA
same,IC50,"Homo sapiens, A-375, read-out: IC50, inhibition of HIF-1α protein increase induced by 10 nM Cl-IB-MECA, hypoxia 4 hours, 0.3-30 nM",0.9 ± 0.08 nM
